Patent publication US9133158B2, “Bicyclic dihydroisoquinoline-1-one derivatives” (Hoffmann-La Roche Inc., priority 2011, dated 2015)

Experiments:
[1] = target: T1, human CYP11B2 (Homo sapiens, UniProt P19099); test: G-402 cellular enzyme assay, human CYP11B2 (aldosterone release, HTRF); format: cell-based; conditions: G-402 cells, 1 μM Deoxycorticosterone
T1 construct: expressed in transfected cells
T1 sequence (P19099 25-503): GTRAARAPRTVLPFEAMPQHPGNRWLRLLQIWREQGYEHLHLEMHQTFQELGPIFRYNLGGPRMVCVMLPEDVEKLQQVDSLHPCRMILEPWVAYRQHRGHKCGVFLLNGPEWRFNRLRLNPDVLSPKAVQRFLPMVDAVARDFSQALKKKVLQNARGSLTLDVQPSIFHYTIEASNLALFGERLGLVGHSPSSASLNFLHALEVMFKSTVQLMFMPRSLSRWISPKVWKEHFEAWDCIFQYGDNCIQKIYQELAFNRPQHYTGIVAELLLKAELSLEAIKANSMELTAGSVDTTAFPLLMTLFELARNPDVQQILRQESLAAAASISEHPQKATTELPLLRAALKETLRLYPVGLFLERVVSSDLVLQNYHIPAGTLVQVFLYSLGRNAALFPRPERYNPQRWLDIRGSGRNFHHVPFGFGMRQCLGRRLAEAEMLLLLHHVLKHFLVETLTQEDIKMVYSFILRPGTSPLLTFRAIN
From the text: (§1) Herein we identified the use of the G-402 cell line as a host cell to ectopically express (transiently or stably) enzymes of the CYP11 family. Specifically we developed stable G-402 cells expressing ectopically human CYP11B1, human CYP11B2, human CYP11A1, cynmolgus CYP11B1 or cynomolgus CYP11B2 enzyme activity. Importantly the identified cell line G-402 expresses co-factors (adrenodoxin and adrenodoxin reductase) important for the activity of the CYP11 family and no relevant enzyme activity of the CYP11 family (in comparison to H295R cells) was detected in these cells. Therefore the G-402 cell line is uniquely suited as a host cell for the ectopic expression of enzymes from the CYP11 family.
(§2) G-402 cells can be obtained from ATCC(CRL-1440) and were originally derived from a renal leiomyoblastoma.
(§3) The expression plasmids contain the ORF for either human/cyno CYP11B1 or CYP11B2 under the control of a suitable promoter (CMV-promoter) and a suitable resistance marker (neomycin). Using standard techniques the expression plasmid is transfected into G-402 cells and these cells are then selected for expressing the given resistance markers. Individual cell-clones are then selected and assessed for displaying the desired enzymatic activity using 11-Deoxycorticosterone (Cyp11B2) or 11-Deoxycortisol (Cyp11B1) as a substrate.
(§4) G-402 cells expressing CYP11 constructs were established as described above and maintained in McCoy's 5a Medium Modified, ATCC Catalog No. 30-2007 containing 10% FCS and 400 μg/ml G418 (Geneticin) at 37° C. under an atmosphere of 5% CO2/95% air.
(§5) Cellular enzyme assays were performed in DMEM/F12 medium containing 2.5% charcoal treated FCS and appropriate concentration of substrate (0.3-10 uM 11-Deoxycorticosterone, 11-Deoxycortisol or Corticosterone). For assaying enzymatic activity, cells were plated onto 96 well plates and incubated for 16 h. An aliquot of the supernatant is then transferred and analyzed for the concentration of the expected product (Aldosterone for CYP11B2; Cortisol for CYP11B1). The concentrations of these steroids can be determined using HTRF assays from CisBio analyzing either Aldosterone or Cortisol.
(§6) Inhibition of the release of produced steroids can be used as a measure of the respective enzyme inhibition by test compounds added during the cellular enzyme assay. The dose dependent inhibition of enzymatic activity by a compound is calculated by means of plotting added inhibitor concentrations (x-axes) vs. measured steroid/product level (y-axes). The inhibition is then calculated by fitting the following 4-parameter sigmoidal function (Morgan-Mercer-Flodin (MMF) model) to the raw data points using the least squares method:
(§7) [formula] wherein, A is the maximum y value, B is the EC50 factor determined using XLFit, C is the minimum y value and D is the slope value.
(§8) EC50 values for compounds claimed herein were tested with the G402-based assay system described. Cyp11B2 enzyme activity was tested in presence of 1 μM Deoxycorticosterone and variable amounts of inhibitors; Cyp11B1 enzyme activity was tested in presence of 1 μM Deoxycortisol and variable amounts of inhibitors.

[2] = target: T2, human CYP11B1 (Homo sapiens, UniProt P15538); test: G-402 cellular enzyme assay, human CYP11B1 (cortisol release, HTRF); format: cell-based; conditions: G-402 cells, 1 μM Deoxycortisol
T2 construct: expressed in transfected cells
T2 sequence (P15538 25-503): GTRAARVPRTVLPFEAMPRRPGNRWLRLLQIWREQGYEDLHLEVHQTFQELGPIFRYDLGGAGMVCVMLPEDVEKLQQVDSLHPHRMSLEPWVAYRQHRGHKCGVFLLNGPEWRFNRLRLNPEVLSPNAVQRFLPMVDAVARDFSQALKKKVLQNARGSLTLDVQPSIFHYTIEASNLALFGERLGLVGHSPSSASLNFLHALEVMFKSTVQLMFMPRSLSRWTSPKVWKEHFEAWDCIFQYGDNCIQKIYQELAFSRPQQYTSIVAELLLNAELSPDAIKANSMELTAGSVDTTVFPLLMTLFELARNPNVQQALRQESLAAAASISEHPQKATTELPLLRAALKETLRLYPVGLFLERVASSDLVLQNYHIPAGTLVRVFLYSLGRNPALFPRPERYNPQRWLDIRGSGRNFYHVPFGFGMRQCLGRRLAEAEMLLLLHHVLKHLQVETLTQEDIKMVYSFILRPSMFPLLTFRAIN
From the text: as §1, §2, §3, §4, §5, §6, §7, §8

| SMILES | EC50 [1] | EC50 [2] |
| --- | --- | --- |
| O=C1CCCN1Cc1cncc(N2CCc3cc(Cl)ccc3C2=O)c1 [Example 155, 6-Chloro-2-[5-(2-oxo-pyrrolidin-1-ylmethyl)-pyridin-3-yl]-3,4-dihydro-2H-isoquinolin-1-one] | 132 nM | 4090 nM |
| O=C1c2ccc(Cl)cc2CCN1c1cncc(Cn2ccnc2)c1 [Example 140, 6-Chloro-2-(5-imidazol-1-ylmethyl-pyridin-3-yl)-3,4-dihydro-2H-isoquinolin-1-one] | 11.8 nM | 70.4 nM |
| COC(c1cncc(N2CCc3cc(Cl)ccc3C2=O)c1)C(F)(F)F (centres unmarked) [Example 19, 6-Chloro-2-[5-(2,2,2-trifluoro-1-methoxy-ethyl)-pyridin-3-yl]-3,4-dihydro-2H-isoquinolin-1-one] | 60.3 nM | 198 nM |
| Cc1n[nH]cc1-c1cncc(N2CCc3cc(Cl)ccc3C2=O)c1 [Example 419, 6-Chloro-2-[5-(3-methyl-1H-pyrazol-4-yl)-pyridin-3-yl]-3,4-dihydro-2H-isoquinolin-1-one] | 9.1 nM | 122 nM |
| CCC(=O)NCc1cncc(N2C(=O)c3ccc(F)cc3C2(C)C)c1 [Example 398, N-[5-(6-Fluoro-1,1-dimethyl-3-oxo-1,3-dihydro-isoindol-2-yl)-pyridin-3-ylmethyl]-propionamide] | 281 nM | 2300 nM |
| O=C1c2ccc(Cl)cc2CCN1c1cncc(Cn2ccnn2)c1 [Example 175, 6-Chloro-2-(5-[1,2,3]triazol-1-ylmethyl-pyridin-3-yl)-3,4-dihydro-2H-isoquinolin-1-one] | 105 nM | 656 nM |
| CCS(=O)(=O)NC1CCc2c1cncc2N1Cc2cc(Cl)ccc2C1=O (single isomer, unassigned) [Example 336, Ethanesulfonic acid [(R or S)-4-(5-chloro-1-oxo-1,3-dihydro-isoindol-2-yl)-6,7-dihydro-5H-[2]pyrindin-7-yl]-amide] | 949 nM | 30000 nM |
| O=C1OCCN1Cc1cncc(N2CCc3cc(Cl)ccc3C2=O)c1 [Example 157, 6-Chloro-2-[5-(2-oxo-oxazolidin-3-ylmethyl)-pyridin-3-yl]-3,4-dihydro-2H-isoquinolin-1-one] | 352 nM | 11200 nM |
| O=C1c2cc(F)c(Cl)cc2CCN1c1cccnc1 [Example 101, 6-Chloro-7-fluoro-2-pyridin-3-yl-3,4-dihydro-2H-isoquinolin-1-one] | 104 nM | 3540 nM |
| O=C1c2ccc(Cl)cc2CCN1c1cncc(Cc2ccccc2C(F)(F)F)c1 [Example 213, 6-Chloro-2-[5-(2-trifluoromethyl-benzyl)-pyridin-3-yl]-3,4-dihydro-2H-isoquinolin-1-one] | 39.1 nM | 278 nM |
| CC(C)N1CCN(Cc2cncc(N3CCc4cc(Cl)ccc4C3=O)c2)CC1 [Example 166, 6-Chloro-2-[5-(4-isopropyl-piperazin-1-ylmethyl)-pyridin-3-yl]-3,4-dihydro-2H-isoquinolin-1-one] | 14.1 nM | 96.3 nM |
| CC(O)c1cncc(N2C(=O)c3ccc(Cl)cc3C2C)c1 (centres unmarked) [Example 122, 5-Chloro-2-[5-(1-hydroxy-ethyl)-pyridin-3-yl]-3-methyl-2,3-dihydro-isoindol-1-one] | 42.3 nM | 180 nM |
| CC1(C)c2cc(Cl)ccc2C(=O)N1c1cncc(OC2CCN(S(C)(=O)=O)C2)c1 (centres unmarked) [Example 445, 5-Chloro-2-[5-(1-methanesulfonyl-pyrrolidin-3-yloxy) -pyridin-3-yl]-3,3-dimethyl-2,3-dihydro-isoindol-1-one] | 7.4 nM | 914 nM |
| COc1cncc(N2CCc3nc(Cl)ccc3C2=O)c1 [Example 96, 2-Chloro-6-(5-methoxy-pyridin-3-yl)-7,8-dihydro-6H-[1,6]naphthyridin-5-one] | 45.8 nM | 533 nM |
| Cn1ccc2cncc(N3CCc4cc(Cl)ccc4C3=O)c21 [Example 65, 6-Chloro-2-(1-methyl-1H-pyrrolo[3,2-c]pyridin-7-yl)-3,4-dihydro-2H-isoquinolin-1-one] | 97.3 nM | 2350 nM |
| O=C1c2ccc(Cl)cc2CCN1c1cncc(Cc2c(F)cccc2Cl)c1 [Example 215, 6-Chloro-2-[5-(2-chloro-6-fluoro-benzyl)-pyridin-3-yl]-3,4-dihydro-2H-isoquinolin-1-one] | 29.6 nM | 137 nM |
| CC(=O)N1CC[C@@H](Oc2cncc(N3C(=O)c4ccc(Cl)cc4C3(C)C)c2)C1 [Example 442, 2-[5-((R)-1-Acetyl-pyrrolidin-3-yloxy)-pyridin-3-yl]-5-chloro-3,3-dimethyl-2,3-dihydro-isoindol-1-one] | 5.6 nM | 427 nM |
| Cc1n[nH]c(C)c1-c1cncc(N2CCc3cc(Cl)ccc3C2=O)c1 [Example 79, 6-Chloro-2-[5-(3,5-dimethyl-1H-pyrazol-4-yl)-pyridin-3-yl]-3,4-dihydro-2H-isoquinolin-1-one] | 5.1 nM | 34 nM |
| O=C1c2ccc(Cl)cc2C(C2CC2)N1c1cncc(F)c1 (centres unmarked) [Example 297, 5-Chloro-3-cyclopropyl-2-(5-fluoro-pyridin-3-yl)-2,3-dihydro-isoindol-1-one] | 207 nM | 12800 nM |
| CC1(C)c2cc(Cl)ccc2C(=O)N1c1cncc(CNc2cc[nH]n2)c1 [Example 381, 5-Chloro-3,3-dimethyl-2-{5-[(1H-pyrazol-3-ylamino)-methyl]-pyridin-3-yl}-2,3-dihydro-isoindol-1-one] | 3.4 nM | 138 nM |
| O=C(c1cncc(N2CCc3cc(Cl)ccc3C2=O)c1)N1CCC(F)(F)CC1 [Example 47, 6-Chloro-2-[5-(4,4-difluoro-piperidine-1-carbonyl)-pyridin-3-yl]-3,4-dihydro-2H-isoquinolin-1-one] | 1030 nM | 23200 nM |
| O=C1c2ccc(Cl)cc2CCN1c1cncc(O)c1 [Example 252, 6-Chloro-2-(5-hydroxy-pyridin-3-yl)-3,4-dihydro-2H-isoquinolin-1-one] | 272 nM | 9760 nM |
| O=C1c2ccc(Cl)cc2CCN1c1cnccc1Cl [Example 6, 6-Chloro-2-(4-chloro-pyridin-3-yl)-3,4-dihydro-2H-isoquinolin-1-one] | 30 nM | 1210 nM |
| CC(=O)N1CCC(Oc2cncc(N3C(=O)c4ccc(Cl)cc4C3(C)C)c2)CC1 [Example 449, 2-[5-(1-Acetyl-piperidin-4-yloxy)-pyridin-3-yl]-5-chloro-3,3-dimethyl-2,3-dihydro-isoindol-1-one] | 2.8 nM | 235 nM |
| O=C1c2ccc(Cl)cc2CCN1c1cncc(Cn2cc3ccccc3n2)c1 [Example 183, 6-Chloro-2-(5-indazol-2-ylmethyl-pyridin-3-yl)-3,4-dihydro-2H-isoquinolin-1-one] | 29.9 nM | 385 nM |
